The source of these data is US20170275302A1, “INHIBITORS OF THE RENAL OUTER MEDULLARY POTASSIUM CHANNEL” (Merck Sharp & Dohme Corp., priority 2014, published 2017).

This test has as its target T1, hROMK (hKir1.1) (Homo sapiens, UniProt P48048).
T1 construct: expressed in transfected cells
T1 sequence (P48048 1-391): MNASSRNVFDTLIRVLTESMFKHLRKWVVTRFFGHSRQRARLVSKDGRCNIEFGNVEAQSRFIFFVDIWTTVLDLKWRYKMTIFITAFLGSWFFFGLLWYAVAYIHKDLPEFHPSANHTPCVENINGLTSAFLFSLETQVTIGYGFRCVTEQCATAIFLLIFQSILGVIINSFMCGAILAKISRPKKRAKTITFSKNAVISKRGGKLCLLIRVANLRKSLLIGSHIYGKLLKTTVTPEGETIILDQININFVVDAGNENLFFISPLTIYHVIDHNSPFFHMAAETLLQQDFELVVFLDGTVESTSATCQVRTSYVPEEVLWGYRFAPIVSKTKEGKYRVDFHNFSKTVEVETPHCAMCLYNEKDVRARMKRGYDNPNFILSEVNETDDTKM
The experiment in a line: Thallium Flux Assay (ROMK channel functional thallium flux assay, FLIPR-Tetra). The format is cell-based. The following applies: HEK293 cells stably expressing hROMK (hKir1.1); FluxOR thallium flux, 30 min compound incubation; concentration inhibiting 50% of ROMK thallium flux signal. The procedure: The following Thallium Flux Assay was performed on each of the final product compounds in the Examples.
HEK293 cells stably expressing hROMK (hKir1.1) were grown at 37° C. in a 10% CO2 humidified incubator in complete growth media: Dulbecco's Modified Eagle Medium supplemented with non-essential amino acids, Penicillin/Streptomycin/Glutamine, G418 and FBS. At >80% confluency, the media was aspirated from the flask and rinsed with 10 mL calcium/magnesium-free phosphate buffered saline (PBS). 5 mL of 1× trypsin (prepared in Ca/Mg Free PBS) was added to T-225 flask and the flask was returned to 37° C./CO2 incubator for 2-3 minutes. To dislodge the cells, the side of the flask was gently banged with one's hand. The cells were completely titrated and then the cells were transferred to 25 mL complete media, centrifuged at 1,500 rpm for 6 min followed by resuspension in complete growth media, and the cell concentration was determined. For typical re-seeding, 4E6 cells/T-225 flask will attain >80% confluency in 4 days. Under ideal growth conditions and appropriate tissue culture practices, this cell line is stable for 40-45 passages.
Compound Buffer (per microplate): 20 mL Probenecid/Assay Buffer; 0.3 mM ouabain (10 mM ouabain in water can be stored in amber bottle/aluminum foil at room temperature); Test compound
Stimulant Buffer (prepared at 5× final concentration in 1× FluxOR™Chloride-Free Buffer): 7.5 mM thallium sulfate and 0.75 mM potassium sulfate (to give a final assay concentration of 3 mM Thallium/0.3 mM potassium). Store at 4° C. when not in use. If kept sterile, this solution is good for months.
The ROMK channel functional thallium flux assay was performed in 384 wells, using the FLIPR-Tetra instrument. HEK-hKir1.1 cells were seeded in Poly-D-Lysine microplates and kept in a 37° C.-10% CO2 incubator overnight. On the day of the experiment, the growth media was replaced with the FluxOR™ reagent loading buffer and incubated, protected from light, at ambient temperature (23-25° C.) for 90 min. The loading buffer was replaced with assay buffer±test compound followed by 30 min incubation at ambient temperature, where the thallium/potassium stimulant was added to the microplate.
• 1. Seed HEK-hKir1.1 cells (50 μl at 20,000 cells/well) in 384-well PDL coated Microplates • 2. Allow cells to adhere overnight in humidified 37° C./10% CO2 incubator • 3. Completely remove cell growth media from microplate and replace with 25 μl loading buffer • 4. Incubate Microplate at room temperature, protected form light, for 90 min • 5. Remove loading buffer and replace with 25 μl 1× Assay Buffer±test compound. • 6. Incubate microplate at room temperature, protected from light, for 30 min • 7. At FLIPR-Tetra 384: Add stimulant (thallium/potassium) solution to microplate and monitor fluorescence. Excitation=400 nm, Emission=460 & 580 nm. Collect data for ˜10 min.
The fluorescence intensity of wells containing 3 μM of a standard control ROMK inhibitor of the present invention was used to define the ROMK-sensitive component of thallium flux. Fluorescence in the presence of test compounds was normalized to control values to provide % fluorescence change. IC50 values represent the concentration of compound that inhibited 50% of the ROMK thallium flux signal.
As a reminder, the IC50 is the concentration at which inhibition is half-maximal. A low value points to greater potency in that assay. As for `Cc1nc(-n2cnnn2)ccc1[C@@H](O)CN1CCC2(CC1)CCN(c1ccc3c(c1C)COC3=O)C2` [Example 78], 622 nM corresponded to half-maximal inhibition (IC50). In other words, the sub-micromolar range. `Cc1c([C@@H](O)CN2CCC3(CC2)CCN(c2ccc4c(c2C)COC4=O)C3)ccc2c1COC2=O` [Example 79, (R)-5-(1-hydroxy-2-(2-(4-methyl-1-oxo-1,3-dihydroisobenzofuran-5-yl)-2,8-diazaspiro[4.5]decan-8-yl)ethyl)-4-methylisobenzofuran-1(3H)-one]: it took 19 nM to reach half-maximal inhibition (IC50). Under `Cc1c([C@@H](O)CN2CCC3(CC2)CN(c2ccc4c(c2C)COC4=O)C(=O)O3)ccc2c1COC2=O` [Example 81, (R)-8-(2-hydroxy-2-(4-methyl-1-oxo-1,3-dihydroisobenzofuran-5-yl)ethyl)-3-(4-methyl-1-oxo-1,3-dihydroisobenzofuran-5-yl)-1-oxa-3,8-diazaspiro[4.5]decan-2-one] stands 91.4 nM; under `Cc1c([C@@H](O)CN2CCC3(CC2)CCN(c2snc4ccccc24)C3=O)ccc2c1COC2=O` [Example 82], 32.6 nM. For `Cc1c([C@@H](O)CN2CCC3(CC2)CCN(c2snc4cccnc24)C3=O)ccc2c1COC2=O` [Example 83], half-maximal inhibition (IC50) was put at 33.9 nM.

Regarding `Cc1c([C@@H](O)CN2CCC3(CC2)CCN(c2snc4ncccc24)C3=O)ccc2c1COC2=O` [Example 84], the IC50 came to 57.1 nM. Turning to `Cc1c([C@@H](O)CN2CCC3(CC2)CCN(c2snc4ccncc24)C3=O)ccc2c1COC2=O` [Example 85], the IC50 was found to be 18.5 nM. For `Cc1c([C@@H](O)CN2CCC3(CC2)CCN(c2ccc4cnnn4c2)C3=O)ccc2c1COC2=O` [Example 86], the midpoint of inhibition, the IC50, lay at 172 nM. `Cc1c([C@@H](O)CN2CCC3(CC2)CCN(c2ccn4cncc4c2)C3=O)ccc2c1COC2=O` [Example 87] came in with an IC50 of 260 nM. The molecule `Cc1c([C@@H](O)CN2CCC3(CC2)CCN(c2ccn4nncc4c2)C3=O)ccc2c1COC2=O` [Example 88, (R)-2-([1,2,3]triazolo[1,5-a]pyridin-5-yl)-8-(2-hydroxy-2-(4-methyl-1-oxo-1,3-dihydroisobenzofuran-5-yl)ethyl)-2,8-diazaspiro[4.5]decan-1-one] had an IC50 of 29.2 nM. With `Cc1c([C@@H](O)CN2CCC3(CC2)CC(=O)N(c2ccc4nonc4c2)C3)ccc2c1COC2=O` [Example 89, (R)-2-(benzo[c][1,2,5]oxadiazol-5-yl)-8-(2-hydroxy-2-(4-methyl-1-oxo-1,3-dihydroisobenzofuran-5-yl)ethyl)-2,8-diazaspiro[4.5]decan-3-one], the IC50 was found to be 42.7 nM.

In the case of `Cc1c([C@@H](O)CN2CCC3(CC2)CCN(c2ccc4nonc4c2)C3)ccc2c1COC2=O` [Example 90], the IC50 is 98.3 nM. Turning to `Cc1c([C@@H](O)CN2CCC3(CC2)CCN(c2nccn4ccnc24)C3)ccc2c1COC2=O` [Example 91], the IC50 turned out to be 699 nM. This IC50 is about 7.1-fold higher than that of the molecule before.

With `Cc1c([C@@H](O)CN2CCC3(CC2)CCN(c2cnc4nonc4c2)C3)ccc2c1COC2=O` [Example 92, (R)-5-(2-(2-([1,2,5]oxadiazolo[3,4-b]pyridin-6-yl)-2,8-diazaspiro[4.5]decan-8-yl)-1-hydroxyethyl)-4-methylisobenzofuran-1(3H)-one], the IC50 amounted to 27.3 nM. As to `Cc1c([C@@H](O)CN2CCC3(CC2)CC(=O)N(c2ccc4nonc4n2)C3)ccc2c1COC2=O` [Example 93], it took 274 nM to reach half-maximal inhibition (IC50). `Cc1c([C@@H](O)CN2CCC3(CC2)CC(=O)N(c2cnc4nonc4c2)C3)ccc2c1COC2=O` [Example 94] returned an IC50 of 109 nM.

Consider `Cc1c([C@@H](O)CN2CCC3(CC2)CCN(c2ccc4nonc4n2)C3)ccc2c1COC2=O` [Example 95, (R)-5-(2-(2-([1,2,5]oxadiazolo[3,4-b]pyridin-5-yl)-2,8-diazaspiro[4.5]decan-8-yl)-1-hydroxyethyl)-4-methylisobenzofuran-1(3H)-one], for which the IC50 amounted to 19.2 nM. This IC50 lies about 5.7-fold lower than the previous one.
